# Laboratory results: EP3822283A1, “SEMAPHORIN 3A NEURODEGENERATION MODULATORS, COMPOSITIONS AND USES THEREOF” (Consejo Superior de Investigaciones Científicas (CSIC), priority 2019, dated 2021)
# Target: T1, Sema3A (Rattus norvegicus, UniProt Q63548)
# T1 sequence (Q63548 21-772): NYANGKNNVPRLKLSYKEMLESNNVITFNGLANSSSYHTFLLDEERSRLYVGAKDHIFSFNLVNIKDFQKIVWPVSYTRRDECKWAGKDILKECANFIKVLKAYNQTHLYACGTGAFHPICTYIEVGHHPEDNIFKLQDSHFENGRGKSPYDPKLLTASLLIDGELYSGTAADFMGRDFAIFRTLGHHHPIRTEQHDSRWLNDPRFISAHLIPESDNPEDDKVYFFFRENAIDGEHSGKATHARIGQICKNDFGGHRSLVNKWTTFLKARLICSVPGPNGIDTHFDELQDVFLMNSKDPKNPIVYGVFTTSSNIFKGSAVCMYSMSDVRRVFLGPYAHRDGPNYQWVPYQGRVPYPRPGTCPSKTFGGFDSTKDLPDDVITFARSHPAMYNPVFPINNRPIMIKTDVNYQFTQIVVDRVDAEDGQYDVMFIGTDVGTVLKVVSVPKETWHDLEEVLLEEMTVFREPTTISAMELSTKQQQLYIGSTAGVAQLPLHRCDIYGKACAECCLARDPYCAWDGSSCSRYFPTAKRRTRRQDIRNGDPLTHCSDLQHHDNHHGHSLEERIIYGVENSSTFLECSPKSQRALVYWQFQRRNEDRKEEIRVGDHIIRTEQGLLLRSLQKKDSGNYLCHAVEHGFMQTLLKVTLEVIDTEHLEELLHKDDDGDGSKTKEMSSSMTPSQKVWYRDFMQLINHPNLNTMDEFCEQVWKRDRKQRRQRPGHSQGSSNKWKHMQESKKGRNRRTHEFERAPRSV
# Protocol: To evaluate the potential of the Compound 2 to inhibit Sema3a in a relevant small animal model, a rat axotomy study was carried out. […] Adult male Sprague-Dawley rats (12-15 weeks old, 300 g) were anesthetized (50 mg/kg xylazine and 35 mg/kg ketamine), and their left optic nerves were exposed by lateral canthotomy. Briefly, the conjuctivae were incised lateral to the cornea, and the retractor bulbus muscles were separated. Through a small opening in the meninges (50-100 µm), the nerve fibers were completely transected at a distance of 2-3 mm from the globe. The procedure was performed without damage to the nerve vasculature and optic nerve blood supply and with minimal damage to the meninges by the use of a specially designed glass dissector with a 200- µm tip and a smooth blunt edge (Solomon et al., 1996, Journal of Neuroscience Methods, 70, 21-5). […] Clinical examination of the eyes was performed using a slit lamp, and the eyes were monitored for any signs of hyperemia, edema, dis- charge, fibrin, and other inflammatory parameters. […] Two independent and blinded researchers counted the number of labeled RGC in flat-mounted retinas by fluorescent microscopy. For each retina, 20 representative microscopic fields were evaluated: 10 fields from the peripheral area and 10 fields from the central area (each field covering an area of 0.069 mm2). […]
structure (smiles),measurement,setting,value
"CCN(CC)CCN(CC(=O)N(CCN1CCCC1)CC(=O)N(CCC1CCCN1C)CC(N)=O)C(=O)OCc1ccccc1 (centres unmarked) [Compound 2, 2-[2-(1-methylpyrrolidin-2-yl)ethyl]-5-(2-pyrrolidin-1-yl)ethyl-8-benzyloxycarbonyl-11,11-diethyl-3,6-dioxo-2,5,8,11-tetraazaundecancarboxamide]",RGC survival compared to healthy rats,"adult male Sprague-Dawley rats, optic nerve axotomy, single intravitreal dose 0.025 µg/eye immediately after surgery, 14 days after optic nerve surgery, 2 days after Di-Asp retrograde staining of RGC",30%
same,prevention of RGC loss (neuroprotection),"rat optic nerve axotomy, single intravitreal dose 0.025 µg/eye in 4 µl PBS, labeled RGC counted in flat-mounted retinas",neuroprotective
